Assay: gradient 5% acetonitrile 3 min, to 50% in 2 min, to 85% in 15 min, held 3 min, 100 µL/min
Settings: column: Zorbax Extend-C18 2.1 x 50 mm; eluents: water / acetonitrile, 0.1% formic acid
Procedure, shortened: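 Over 3 months, pure standards in mixtures of ~100 molecules were run by HPLC coupled to a quadrupole time-of-flight mass spectrometer in positive and negative ionization mode. The column was a Zorbax Extend-C18 (2.1 × 50 mm, 1.8 μm) at 100 μL/min, eluted with water and acetonitrile each holding 0.1% formic acid, with 40 μL dead and 900 μL dwell volumes. Retention time was determined from adduct peaks chosen by software and checked manually.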

RP-LC retention time [s]	SMILES
614	Cc1ccc(C(=O)N2CCC3(CC2)N(C)C(=O)CS3(=O)=O)s1
821	CCN1c2cc(C(=O)Nc3ccc4c(c3)OCCO4)ccc2C(=O)N2CCCCC21 (stereo not drawn)
580	COc1ccc(-c2nc(N3CCN(c4ccccn4)CC3)c3ccccc3n2)cc1
587	Cn1nccc1C(=O)N1CCN(c2cc(=O)n(C)c(=O)n2C)CC1
794	O=C(c1cc2ccccc2[nH]1)N1CCCC1
786	CS(=O)(=O)N1CCCc2ccc(NC(=O)c3ccc4nsnc4c3)cc21
869	O=C(Cc1csc2nc(-c3ccccc3)cn12)N1CCN(c2ccccc2F)CC1
575	CC(=O)N1CCC2(CC1)CC(CCO)CCO2 (stereo not drawn)
562	CCN1CCN(CCNC(=O)C2Cn3cccc3C(=O)N2CC(C)C)CC1 (stereo not drawn)
570	CCN(CC)CCCNC(=O)C1CCN(c2nc3cccnc3s2)CC1
684	COc1ccc(CC(=O)N(C)C2CCN(c3nccnc3OC)C2)cc1 (stereo not drawn)
694	Cc1cc(C(=O)Nc2ccc(Cl)cn2)c2ccccc2n1
588	CNC(=O)CCNc1c(-c2ccc(OC)cc2)nc2cnccn12
703	COCCN1C(=O)c2cccn2CC1CNC(=O)Cn1nc(C(F)(F)F)cc1C (stereo not drawn)
670	Cc1ccc(NC(=O)C2CCN(c3cncnc3N3CCOCC3)CC2)cc1C
641	Cc1ccc(-n2cc(C(=O)N3CCC(C(N)=O)CC3)nn2)cc1
949	O=C(O)CSc1nnc(Br)n1-c1ccc(C2CC2)c2ccccc12
982	CCc1nn2c(CNS(=O)(=O)c3ccc(F)c(F)c3)c(-c3ccccc3)nc2s1
647	O=C(NCC1CCN(c2ncccn2)CC1)c1ccc(Br)o1

RP-LC retention time [s]	SMILES
861	O=C1CN(C(=O)COc2cccc3ccccc23)c2ccccc2N1
888	COc1ccc2[nH]c3c(c2c1)CCN(C(=O)CC(C)C)C31C(=O)N(C)c2ccccc21 (stereo not drawn)
865	COCc1cc(=O)n(CC(=O)Nc2ccc(Cl)cc2)c(N2CCOCC2)n1
924	O=c1c2cc(-c3cccs3)nn2ccn1CC(O)c1cccc(Cl)c1 (stereo not drawn)
712	CC(C)n1cc(C(=O)O)c(S(=O)(=O)N2CCCC2)n1
932	COC(=O)c1[nH]c(C)c(C(=O)C(C)N(CC(C)C)C(=O)c2ccccc2Cl)c1C (stereo not drawn)
791	Cc1csc(-c2ccc(N3CCN(C(=O)c4ccc5c(c4)OCO5)CC3)nc2)n1
801	COc1ccc(-c2c(C)noc2NC(C)=O)cc1S(=O)(=O)N1CCC(C)CC1
856	Cn1cc(-c2cc3n(n2)CCC(=O)N3CC(=O)NC2CCCCCC2)c2ccccc21
637	O=C(c1cnccn1)N1CCCCC1c1nncn1Cc1ccccc1 (stereo not drawn)
673	O=C(c1nc(-c2ccnc(N3CCCCC3)c2)no1)N1CCCC1
777	COc1ccccc1Cc1noc(C2CN(C(=O)c3cncc(Br)c3)C2)n1
718	COc1ccccc1N1CCN(C(=O)C2CCN(c3c(C)n(C)c(=O)n(C)c3=O)CC2)CC1
636	Cc1nnc2cc(N3CCN(S(=O)(=O)c4cccs4)CC3)cnn12
769	CCOC(=O)C1CCN(S(=O)(=O)c2cc3c4c(c2)CCC(=O)N4CCC3)CC1
570	CCN1CCN(CC(=O)NCc2ccccc2)C(=O)C1=O
852	COc1ccc(OC)c(S(=O)(=O)N(C)CC2(C)CCOCC2)c1
709	Cc1ccc(S(=O)(=O)N2CCC3(CC2)NCCN=C3NCc2ccccc2F)cc1
598	Cc1ccc(NC(=O)N2CCCC2c2nc(-c3ccccc3C)no2)cc1 (stereo not drawn)
